Here are results for two compounds from patent US6166063A, “N-(substituted glycyl)-2-cyanopyrrolidines, pharmaceutical compositions containing them and their use in inhibiting dipeptidyl peptidase-IV” (Novartis AG, priority 1999, dated 2000).

Structures are written as SMILES.

Assay [1] addresses human plasma DPP-IV (Homo sapiens, UniProt P27487). The experiment in a line: DPP-IV inhibition in human plasma. The format is biochemical. Conditions: substrate H-Glycine-Proline-AMC, pH 7.8, room temperature, 8-point curve.
Experimental: (§1) Briefly, 5 μl of plasma are added to 96-well flat-bottom microtiter plates (Falcon), followed by the addition of 5 μl of 80 mM MgCl2 in incubation buffer (25 mMHEPES, 140 mM NaCl, 1% RIA-grade BSA, pH 7.8). After a 60 min. incubation at room temperature, the reaction is initiated by the addition of 10 μl of incubation buffer containing 0.1 mM substrate (H-Glycine-Proline-AMC;AMC is 7-amino-4-methylcoumarin). The plates are covered with aluminum foil (or kept in the dark) and incubated at room temperature for 20 min. […] A fluorescence-concentration curve of free AMC is generated using 0-50 μM solutions of AMC in assay buffer. The curve generated is linear and is used for interpolation of substrate consumption (catalytic activity in nmoles substrate cleaved/min). As with the previous assay, the potency of the test compounds as DPP-IV inhibitors, expressed as IC50, is calculated from 8-point, dose-response curves using a 4 parameter logistic function.
Assay [2] deals with rat plasma DPP-IV (Rattus norvegicus, UniProt P14740). Kind of assay: DPP-IV inhibition in rat plasma.
Chain of rat plasma DPP-IV (P14740 37-767 limits assumed): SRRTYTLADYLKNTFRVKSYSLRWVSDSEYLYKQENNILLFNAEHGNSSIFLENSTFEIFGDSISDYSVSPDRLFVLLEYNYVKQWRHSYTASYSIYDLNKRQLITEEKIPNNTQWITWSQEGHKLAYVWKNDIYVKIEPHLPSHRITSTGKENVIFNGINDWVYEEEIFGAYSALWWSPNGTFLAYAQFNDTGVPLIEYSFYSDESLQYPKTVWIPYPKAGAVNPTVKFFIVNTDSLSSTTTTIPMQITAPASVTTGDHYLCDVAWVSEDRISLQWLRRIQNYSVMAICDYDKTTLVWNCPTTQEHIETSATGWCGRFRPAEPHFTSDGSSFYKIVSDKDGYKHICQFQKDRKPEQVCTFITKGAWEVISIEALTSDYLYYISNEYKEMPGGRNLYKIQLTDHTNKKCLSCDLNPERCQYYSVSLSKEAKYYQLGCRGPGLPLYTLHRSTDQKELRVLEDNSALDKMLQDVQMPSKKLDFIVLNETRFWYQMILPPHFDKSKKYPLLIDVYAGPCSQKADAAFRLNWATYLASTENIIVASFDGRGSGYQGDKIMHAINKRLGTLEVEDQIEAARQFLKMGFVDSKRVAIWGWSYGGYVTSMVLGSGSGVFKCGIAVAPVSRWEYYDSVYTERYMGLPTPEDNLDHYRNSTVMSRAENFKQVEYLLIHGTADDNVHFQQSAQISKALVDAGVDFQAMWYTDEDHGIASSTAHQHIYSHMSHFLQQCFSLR
Experimental: as §1
The test system of assay [3] is insulin resistant rats. The experiment in a line: Early insulin response to an oral glucose challenge in insulin resistant rats. The format is in vivo, Male Sprague-Dawley rats. The settings on record: 10 μmol/kg oral in CMC, 30 min before oral glucose 1 g/kg; high fat diet rats; % increase of the mean of the control animals. The protocol: Male Sprague-Dawley rats that had been fed a high fat diet (saturated fat=57% calories) for 2-3 weeks were fasted for approximately 2 hours on the day of testing, divided into groups of 8-10, and dosed orally with 10 μmol/kg of the test compounds in CMC. An oral glucose bolus of 1 g/kg was administered 30 minutes after the test compound directly into the stomach of the test animals. Blood samples, obtained at various timepoints from chronic jugular vein catheters, were analyzed for plasma glucose and immunoreactive insulin (IRI) concentrations, and plasma DPP-IV activity. Plasma insulin levels were assayed by a double antibody radioimmunoassay (RIA) method using a specific anti-rat insulin antibody from Linco Research (St. Louis, Mo.). The RIA has a lower limit of detection of 0.5 μU/mL with intra- and inter-assay variations of less than 5%. Data are expressed as % increase of the mean of the control animals. Upon oral administration, each of the compounds tested amplified the early insulin response which led to an improvement in glucose tolerance in the insulin resistant test animals.

Chain of human plasma DPP-IV (P27487 39-766 limits assumed): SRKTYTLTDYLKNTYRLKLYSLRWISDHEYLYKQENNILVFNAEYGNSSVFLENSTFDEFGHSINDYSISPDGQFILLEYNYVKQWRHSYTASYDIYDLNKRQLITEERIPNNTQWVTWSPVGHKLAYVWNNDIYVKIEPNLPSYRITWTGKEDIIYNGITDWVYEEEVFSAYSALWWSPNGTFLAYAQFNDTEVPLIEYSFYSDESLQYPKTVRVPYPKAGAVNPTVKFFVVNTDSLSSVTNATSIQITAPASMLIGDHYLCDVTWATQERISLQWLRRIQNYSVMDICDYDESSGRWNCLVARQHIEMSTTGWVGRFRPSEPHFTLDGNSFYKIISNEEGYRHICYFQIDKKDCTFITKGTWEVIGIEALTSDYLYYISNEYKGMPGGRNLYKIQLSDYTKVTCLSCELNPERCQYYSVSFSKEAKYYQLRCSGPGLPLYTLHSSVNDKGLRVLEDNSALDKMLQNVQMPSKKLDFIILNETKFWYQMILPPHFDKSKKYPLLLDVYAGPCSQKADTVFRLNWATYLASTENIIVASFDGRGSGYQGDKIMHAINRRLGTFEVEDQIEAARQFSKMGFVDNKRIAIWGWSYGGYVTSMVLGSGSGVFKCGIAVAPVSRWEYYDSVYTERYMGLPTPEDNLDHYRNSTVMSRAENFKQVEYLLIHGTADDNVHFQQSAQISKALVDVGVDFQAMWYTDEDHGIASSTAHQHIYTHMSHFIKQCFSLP

For orientation: IC50 means the concentration needed to halve the response being measured. A high value points to lower potency. Turning to `N#C[C@@H]1CCCN1C(=O)CNC1C2CC3CC1CC(O)(C3)C2` (stereo partly drawn) [Ex. 8, Pyrrolidine, 1-[[(5-hydroxy-2-adamantyl)amino]-acetyl]-2-cyano-, (S)-], the figures for the IC50 in assay [1] and in assay [2] were 6 nM and 12 nM, respectively. For `N#C[C@@H]1CCCN1C(=O)CNC12CC3CC(CC(O)(C3)C1)C2` [Ex. 1, Pyrrolidine, 1-[(3-hydroxy-1-adamantyl)amino]acetyl-2-cyano-, (S)], the “Increase of Insulin Response” value in assay [3] is on record as 64%.
